Experiments:
psoriasis = conditions: in vivo
[1] = system: dry/cracking and scaly elbows; assay type: in vivo, human; conditions: regimen tried prior to the inventive composition
[2] = system: Bacillus anthracis Stearns strain; assay type: cell-based
[3] = system: Bacillus anthracis Ames strain; assay type: cell-based
[4] = system: Paenibacillus polymyxa, Bacillus licheniformis, Bacillus subtilis, Bacillus sphaericus, Bacillus cereus and a wild Bacillus strain; assay type: cell-based, Bacillus species; conditions: for average zone of inhibition: 3 replicate assays
[5] = system: Staphylococcus aureus, Staphylococcus epidermidis, Streptococcus pyogenes, Streptococcus mutans, other beta hemolytic streptococci, Entercoccus faecalis …; assay type: cell-based; conditions: in vitro
Escherichia coli = assay type: cell-based; set-up: key: NG = no growth; conditions: E. coli >10^5 CFU/ml inoculated into 2 ml d-limonene
Enterococcus faecalis = assay type: cell-based; set-up: key: NG = no growth; conditions: E. faecalis >10^5 CFU/ml inoculated into 2 ml d-limonene
Pseudomonas aeruginosa = assay type: cell-based; set-up: key: NG = no growth; conditions: P. aeruginosa >10^5 CFU/ml inoculated into 2 ml d-limonene
[6] = system: Stenotrophomonas maltophila; assay type: cell-based; set-up: key: NG = no growth
Staphylococcus aureus = assay type: cell-based; set-up: key: NG = no growth; conditions: S. aureus >10^5 CFU/ml inoculated into 2 ml d-limonene
Enterobacter cloacae = assay type: cell-based; set-up: key: NG = no growth
Serratia marcescens = assay type: cell-based; set-up: key: NG = no growth
[7] = system: Escherichia coli, Enterobactor cloacae, Klebsiella pneumoniae, Serratia marcescens, Pseudomonas aeruginosa, Acinetobacter baummii/haemolyticus, Paenibacillus …; assay type: cell-based; conditions: in vitro
[8] = system: Acinetobacter baummii/haemolyticus; assay type: cell-based; set-up: key: NG = no growth; conditions: Ac. baum/haemo >10^5 CFU/ml inoculated into 2 ml d-limonene
[9] = system: Staphylococcus epidermidis; assay type: cell-based; set-up: key: NG = no growth; conditions: S. epidermidis >10^5 CFU/ml inoculated into 2 ml d-limonene
Enterococcus faecium = assay type: cell-based; set-up: key: NG = no growth; conditions: E. faecium >10^5 CFU/ml inoculated into 2 ml d-limonene
Klebsiella pneumoniae = assay type: cell-based; set-up: key: NG = no growth; conditions: K. pneumoniae >10^5 CFU/ml inoculated into 2 ml d-limonene
[10] = system: gram-positive and gram-negative pathogens; assay type: cell-based
[11] = system: Bacillus licheniformis, B. sphaericus, Bacillus cereus, Bacillus subtilus, Bacillus anthracis (Stearns and Ames strains); assay type: cell-based, Bacillus species

Vitamin E
effect of earlier treatments on the psoriasis (psoriasis): no results | effect of earlier regimen on the condition [1]: no improvement

NCc1ccc(S(N)(=O)=O)cc1 [mafenide acetate]
susceptibility of the strain to the product [2]: susceptible | susceptibility of the strain to the product [3]: susceptible | average zone of inhibition ([4]; six Bacillus strains): 36 mm

COc1cc(C)c(/C=C/C(C)=C/C=C/C(C)=C/C(=O)O)c(C)c1C [SORIATANE]
effect of earlier treatments on the psoriasis (psoriasis): Neither treatment was effective | side effects (psoriasis): unpleasant side effects

O=C(O)c1cn(C2CC2)c2cc(N3CCNCC3)c(F)cc2c1=O [CIPRO]
effect of earlier treatments on the psoriasis (psoriasis): Neither treatment was effective | side effects (psoriasis): unpleasant side effects

NC(=O)N/N=C/c1ccc([N+](=O)[O-])o1 [Furacin, nitrofurazone]
average zone of inhibition ([4]; six Bacillus strains): 35 mm

OCl [NaOCl, sodium hypochlorite]
susceptibility of the strain to the product [2]: susceptible to all products tested except | zone of inhibition [3]: no zones of inhibition | average zone size ([4]; only the inhibited strains P. Polymyxa, B. sphaericus and B. cereus): 16 mm | inhibition of the Bacillus strains (which strains) ([4]; six Bacillus strains): only inhibited P. Polymyxa, B. sphaericus and B. cereus

O=[N+]([O-])[O-].[Ag+] [AgNO3, silver nitrate]
zone of inhibition (average inhibition zone) [2]: 18 mm | zone of inhibition [3]: 16 mm | average zone of inhibition ([4]; six Bacillus strains): 16 mm

d-limonene
effectiveness in eradicating gram-positive pathogens [5]: effective in eradicating | zone of inhibition (average inhibition zone) [2]: 30 mm | Growth at 24 hr (Escherichia coli; 24 hr): NG | Growth at 48 hr (Escherichia coli; 48 hr): NG | Growth at 72 hr (Escherichia coli; 72 hr): NG | Growth at 24 hr (Enterococcus faecalis; 24 hr): NG | Growth at 48 hr (Enterococcus faecalis; 48 hr): NG | Growth at 72 hr (Enterococcus faecalis; 72 hr): NG | Growth at 24 hr (Pseudomonas aeruginosa; 24 hr): NG | Growth at 48 hr (Pseudomonas aeruginosa; 48 hr): NG | Growth at 72 hr (Pseudomonas aeruginosa; 72 hr): NG | Growth at 24 hr [6]: NG | Growth at 48 hr [6]: NG | Growth at 72 hr [6]: NG | zone of inhibition [3]: 21 mm | Growth at 24 hr (Staphylococcus aureus; 24 hr): NG* | Growth at 48 hr (Staphylococcus aureus; 48 hr): NG | Growth at 72 hr (Staphylococcus aureus; 72 hr): NG | Growth at 24 hr (Enterobacter cloacae): NG | Growth at 48 hr (Enterobacter cloacae): NG | Growth at 72 hr (Enterobacter cloacae): NG | Growth at 24 hr (Serratia marcescens): NG* | Growth at 48 hr (Serratia marcescens): NG | Growth at 72 hr (Serratia marcescens): NG | effectiveness in eradicating gram-negative pathogens [7]: effective in eradicating | Growth at 24 hr ([8]; 24 hr): NG | Growth at 48 hr ([8]; 48 hr): NG | Growth at 72 hr ([8]; 72 hr): NG | Growth at 24 hr ([9]; 24 hr): NG | Growth at 48 hr ([9]; 48 hr): NG | Growth at 72 hr ([9]; 72 hr): NG | Growth at 24 hr (Enterococcus faecium; 24 hr): NG | Growth at 48 hr (Enterococcus faecium; 48 hr): NG | Growth at 72 hr (Enterococcus faecium; 72 hr): NG | Growth at 24 hr (Klebsiella pneumoniae; 24 hr): NG | Growth at 48 hr (Klebsiella pneumoniae; 48 hr): NG | Growth at 72 hr (Klebsiella pneumoniae; 72 hr): NG | effectiveness in killing or inhibiting growth of gram-positive and gram-negative bacteria [10]: effective in killing or inhibiting the growth | time within which all pathogens tested were effectively eradicated [10]: ≤ 24 h | average zone of inhibition ([4]; six Bacillus strains): 21 mm | effectiveness in eradicating Bacillus species [11]: effective in eradicating
